Data set [1] relates to xenograft models of ER+ breast cancer. As to the kind of experiment: tamoxifen-sensitive and tamoxifen-resistant xenograft models of ER+ breast cancer. It is filed as in vivo.
Data set [2] has as its system ER and Ki-67 levels in tumor specimens. As to the kind of experiment: Phase I clinical trial: tumor biopsies, ER and Ki-67 levels. Also on record: species or system postmenopausal women. The following applies: in vivo. The source says: Pre- and post-treatment tumor biopsies (soft tissue or visceral lesions) will be collected to evaluate: • Tumor Histology; tumor vs. stroma, vs fibrotic tissue • ERα and PR protein levels by immunohistochemistry or immunofluorescence • Proliferative Index (Ki67) • ER target gene modulation: Examples of ER target genes thay maybe monitored include, but are not limited to: AGR2, AREG, C3, CCND1, CXCL12, ERBB2, GREB1, IL6, IRS1, PDZK1, PGR, SEMA3B, TFF1, TFF2, TFF3, TOP2A, WISP2. Circulating Tumor DNA (ctDNA)
(§1) A preliminary analysis of the first 41 patients enrolled in the Phase I study described in Example 1 was conducted. 41 patients were enrolled in the Phase I portion of the study, across 9 different dose escalation cohorts. The patients were postmenopausal women with advanced or metastatic breast cancer that had previously relapsed or progressed following prior therapy with the aromatase inhibitors anastrozole, exemestane, and letrozole (90%), chemotherapy (68%), including capecitabine (27%), tamoxifen (54%), fulvestrant (41%), everolimus (19%), and also other investigational agents (17%).

The test system of data set [3] is advanced or metastatic ER+ (HER2−) breast cancer. As to the kind of experiment: Phase I clinical trial: safety and clinical benefit. It is filed as in vivo.
Text: The MTD and/or RP2D will be defined as the dose with ≤1 out of 6 patients with Dose Limiting Toxicity (DLT). Dose Limiting Toxicity (DLT) Definition: Any Grade ≥3 non-hematology toxicity (excluding alopecia); Any Grade ≥3 hematology toxicity >7 days; Any Grade toxicity that leads to study drug interruption >7 days.
Disease assessments will be performed. Imaging studies will include a CT scan of the chest, abdomen, and pelvis, plus a bone scan. Radiographic confirmation of objective tumor response or disease progression will be based on RECIST v1.1 (Eisenhauer, 2009). For new bone lesions detected on bone scans, a second imaging modality (e.g., CT or MRI) will be required to confirm progression.
as §1

On the set-up of data set [4]: species or system postmenopausal women. The following applies: in vivo. On the procedure: If the safety and PK profile seen in the Phase I (dose escalation) portion of the study are deemed favorable to justify further continuation of the study, dose escalation will be followed by an expansion cohort to further confirm safety and tolerability and assess preliminary evidence of antitumor activity (Phase IIa).
as §1

Another data set is described as follows: oral bioavailability. Conditions: in vivo.
Another data set relates to breast cancer cell lines. As to the kind of experiment: breast tumor cell proliferation. The class given is cell-based.

Each structure is given as a SMILES string.

Regarding `C[C@]12CC[C@@H]3c4ccc(O)cc4C[C@@H](CCCCCCCCC[S+]([O-])CCCC(F)(F)C(F)(F)F)[C@H]3[C@@H]1CC[C@@H]2O` (stereo partly drawn) [fulvestrant, reference compound], the “efficacy compared with the acrylic acid compound” value in data set [1] (tamoxifen-resistant xenograft models) was “less efficacious”.

As to `CC/C(=C(/c1ccc(/C=C/C(=O)O)cc1)c1ccc2[nH]ncc2c1)c1ccc(F)cc1Cl` [(E)-3-(4-((E)-2-(2-chloro-4-fluorophenyl)-1-(1H-indazol-5-yl)but-1-en-1-yl)phenyl)acrylic acid], the “ER and Ki-67 levels in tumor specimens” value in data set [2] is recorded as “reduced”. The safety and tolerability result in data set [3] (41 patients, progressed on a median of 4 prior treatments) is “safe and well tolerated”. Further, the “preliminary overall clinical benefit rate” value in data set [3] (all patients, preliminary analysis) amounted to 42%. For the same compound, in data set [3] (patients previously treated with fulvestrant), the “preliminary clinical benefit rate” value was determined as 35%. In data set [4] (female, human), the “dose at which target plasma concentrations were achieved” value was no less than 600 mg QD. In data set [4] (po), the pharmacokinetic profile entry is “linear and dose proportional”. Moreover, the oral bioavailability entry in “oral bioavailability” is “good oral bioavailability”. The “breast tumor cell proliferation” value with breast cancer cell lines is listed as “inhibition of breast tumor cell proliferation”. The tolerability result in data set [1] (all doses, xenograft models) is “very well tolerated”. The compound also yielded an efficacious dose range in data set [1] (all xenograft models) of 10 to 100 mg/kg/day. In addition, the anti-tumor activity entry in data set [1] (tamoxifen-sensitive and tamoxifen-resistant xenograft models) is “dose dependent anti-tumor activity”.

These data come from US10034860B2, “Estrogen receptor modulator for the treatment of locally advanced or metastatic estrogen receptor positive breast cancer” (Genentech, Inc., priority 2013, dated 2018).
